From patent US10597388B2, “Pyridazinone herbicides” (FMC CORPORATION, priority 2014, dated 2020)

Key:
Test in all cases: Test E greenhouse herbicide test, pre- and postemergence
Format in all cases: in vivo
[1] = tested on: waterhemp (common waterhemp, Amaranthus rudis)
Procedure, shortened: (§1)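 Seeds were sown in silt loam and sprayed preemergence with compound in a non-phytotoxic solvent mix containing surfactant; for postemergence, plants at 2 to 18 cm (1- to 4-leaf stage) in peat-based potting medium were sprayed with the same formulation. After 14 to 21 d in a greenhouse, injury was rated visually against controls (0–100).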

[2] = tested on: field bindweed (Convolvulus arvensis)
Procedure, shortened: as §1

[3] = tested on: beggarticks (hairy beggarticks, Bidens pilosa)
Procedure, shortened: as §1

[4] = tested on: goosegrass (Eleusine indica); conditions: Preemergence
Procedure, shortened: as §1

[5] = tested on: Italian ryegrass (Lolium multiflorum)
Procedure, shortened: as §1

[6] = tested on: horseweed (Conyza canadensis)
Procedure, shortened: as §1

[7] = tested on: surinam grass (Brachiaria decumbens); conditions: Preemergence
Procedure, shortened: as §1

[8] = tested on: ragweed (common ragweed, Ambrosia elatior)
Procedure, shortened: as §1

[9] = tested on: arrowleaf sida (Sida rhombifolia)
Procedure, shortened: as §1

[10] = tested on: momingglory (Ipomoea coccinea); conditions: Preemergence
Procedure, shortened: as §1

[11] = tested on: nightshade (eastern black nightshade, Solanum ptycanthum); conditions: Preemergence
Procedure, shortened: as §1

[12] = tested on: barnyardgrass (Echinochloa crus-galli)
Procedure, shortened: as §1

[13] = 62 g ai/ha, Preemergence, scale 0 to 100 (0 no effect, 100 complete control)
[14] = 125 g ai/ha, Preemergence, scale 0 to 100 (0 no effect, 100 complete control)
[15] = Preemergence, 31 g ai/ha, scale 0 to 100, 0 no effect, 100 complete control
[16] = Preemergence, 250 g ai/ha, visual, scale 0 no effect to 100 complete control
[17] = Preemergence, 125 g ai/ha, visual, scale 0 no effect to 100 complete control
[18] = 62 g ai/ha, scale 0 to 100 (0 no effect, 100 complete control)
[19] = 31 g ai/ha, scale 0 to 100, 0 no effect, 100 complete control
[20] = 125 g ai/ha, visual, scale 0 no effect to 100 complete control
[21] = 250 g ai/ha, visual, scale 0 no effect to 100 complete control
[22] = 125 g ai/ha, scale 0 to 100 (0 no effect, 100 complete control)
[23] = 62 g ai/ha, Postemergence, scale 0 to 100 (0 no effect, 100 complete control)
[24] = 125 g ai/ha, Postemergence, scale 0 to 100 (0 no effect, 100 complete control)
[25] = 250 g ai/ha, Postemergence, scale 0 to 100 (0 no effect, 100 complete control)
[26] = Postemergence, 31 g ai/ha, visual, scale 0 no effect to 100 complete control

Compound: Cc1ccc2ccccc2c1-c1c(O)c(I)nn(C)c1=O [Compound 29]
- Plant response rating, Waterhemp [1, 13]: 90
- Plant response rating, Waterhemp [1, 14]: 98
- Plant response rating, Waterhemp [1, 15]: 80
- Plant response rating, Waterhemp [1, 16]: 100
- Plant response rating, Field Bindweed [2, 13]: 90
- Plant response rating, Field Bindweed [2, 15]: 80
- Plant response rating, Field Bindweed [2, 17]: 95
- Plant response rating, Field Bindweed [2, 16]: 98
- Plant response rating, Beggarticks [3, 13]: 98
- Plant response rating, Beggarticks [3, 15]: 80
- Plant response rating, Beggarticks [3, 17]: 100
- Plant response rating, Beggarticks [3, 16]: 100
- Plant response rating, Goosegrass [4, 18]: 20
- Plant response rating, Goosegrass [4, 19]: 0
- Plant response rating, Goosegrass [4, 20]: 50
- Plant response rating, Goosegrass [4, 21]: 90
- Plant response rating, Ryegrass, Italian [5, 13]: 75
- Plant response rating, Ryegrass, Italian [5, 14]: 95
- Plant response rating, Ryegrass, Italian [5, 15]: 65
- Plant response rating, Ryegrass, Italian [5, 16]: 100
- Plant response rating, Horseweed [6, 13]: 100
- Plant response rating, Horseweed [6, 15]: 100
- Plant response rating, Horseweed [6, 17]: 100
- Plant response rating, Horseweed [6, 16]: 100
- Plant response rating, Surinam Grass [7, 18]: 95
- Plant response rating, Surinam Grass [7, 22]: 95
- Plant response rating, Surinam Grass [7, 19]: 75
- Plant response rating, Surinam Grass [7, 21]: 100
- Plant response rating, Ragweed [8, 13]: 85
- Plant response rating, Ragweed [8, 14]: 70
- Plant response rating, Ragweed [8, 15]: 90
- Plant response rating, Ragweed [8, 16]: 98
- Plant response rating, Arrowleaf Sida [9, 13]: 90
- Plant response rating, Arrowleaf Sida [9, 15]: 70
- Plant response rating, Arrowleaf Sida [9, 17]: 98
- Plant response rating, Arrowleaf Sida [9, 16]: 98
- Plant response rating, Morningglory [10, 18]: 65
- Plant response rating, Morningglory [10, 22]: 80
- Plant response rating, Morningglory [10, 19]: 35
- Plant response rating, Morningglory [10, 21]: 95
- Plant response rating, Nightshade [11, 18]: 70
- Plant response rating, Nightshade [11, 22]: 85
- Plant response rating, Nightshade [11, 19]: 5
- Plant response rating, Nightshade [11, 21]: 90
- Plant response rating, Barnyardgrass [12, 13]: 25
- Plant response rating, Barnyardgrass [12, 15]: 0
- Plant response rating, Barnyardgrass [12, 17]: 65
- Plant response rating, Barnyardgrass [12, 16]: 90

Compound: Cc1cc2ccccc2c(-c2c(O)c(C)nn(C)c2=O)c1C [Compound 34]
- Plant response rating, Waterhemp [1, 23]: 85
- Plant response rating, Waterhemp [1, 13]: 100
- Plant response rating, Waterhemp [1, 24]: 85
- Plant response rating, Waterhemp [1, 14]: 100
- Plant response rating, Waterhemp [1, 25]: 90
- Plant response rating, Waterhemp [1, 26]: 70
- Plant response rating, Waterhemp [1, 15]: 100
- Plant response rating, Waterhemp [1, 16]: 100
- Plant response rating, Field Bindweed [2, 23]: 80
- Plant response rating, Field Bindweed [2, 13]: 50
- Plant response rating, Field Bindweed [2, 24]: 80
- Plant response rating, Field Bindweed [2, 25]: 95
- Plant response rating, Field Bindweed [2, 26]: 70
- Plant response rating, Field Bindweed [2, 15]: 5
- Plant response rating, Field Bindweed [2, 17]: 40
- Plant response rating, Field Bindweed [2, 16]: 60
- Plant response rating, Beggarticks [3, 23]: 100
- Plant response rating, Beggarticks [3, 13]: 100
- Plant response rating, Beggarticks [3, 24]: 98
- Plant response rating, Beggarticks [3, 25]: 100
- Plant response rating, Beggarticks [3, 26]: 90
- Plant response rating, Beggarticks [3, 15]: 90
- Plant response rating, Beggarticks [3, 17]: 100
- Plant response rating, Beggarticks [3, 16]: 100
- Plant response rating, Goosegrass [4, 18]: 5
- Plant response rating, Goosegrass [4, 19]: 5
- Plant response rating, Goosegrass [4, 20]: 10
- Plant response rating, Goosegrass [4, 21]: 10
- Plant response rating, Ryegrass, Italian [5, 23]: 80
- Plant response rating, Ryegrass, Italian [5, 13]: 100
- Plant response rating, Ryegrass, Italian [5, 24]: 85
- Plant response rating, Ryegrass, Italian [5, 14]: 100
- Plant response rating, Ryegrass, Italian [5, 25]: 90
- Plant response rating, Ryegrass, Italian [5, 26]: 65
- Plant response rating, Ryegrass, Italian [5, 15]: 90
- Plant response rating, Ryegrass, Italian [5, 16]: 100
- Plant response rating, Horseweed [6, 23]: 75
- Plant response rating, Horseweed [6, 24]: 80
- Plant response rating, Horseweed [6, 25]: 90
- Plant response rating, Horseweed [6, 26]: 85
- Plant response rating, Surinam Grass [7, 18]: 75
- Plant response rating, Surinam Grass [7, 22]: 95
- Plant response rating, Surinam Grass [7, 19]: 5
- Plant response rating, Surinam Grass [7, 21]: 80
- Plant response rating, Ragweed [8, 23]: 85
- Plant response rating, Ragweed [8, 13]: 75
- Plant response rating, Ragweed [8, 24]: 90
- Plant response rating, Ragweed [8, 14]: 100
- Plant response rating, Ragweed [8, 25]: 100
- Plant response rating, Ragweed [8, 26]: 90
- Plant response rating, Ragweed [8, 15]: 70
- Plant response rating, Ragweed [8, 16]: 100
- Plant response rating, Arrowleaf Sida [9, 23]: 60
- Plant response rating, Arrowleaf Sida [9, 13]: 20
- Plant response rating, Arrowleaf Sida [9, 24]: 70
- Plant response rating, Arrowleaf Sida [9, 25]: 75
- Plant response rating, Arrowleaf Sida [9, 26]: 65
- Plant response rating, Arrowleaf Sida [9, 15]: 0
- Plant response rating, Arrowleaf Sida [9, 17]: 65
- Plant response rating, Arrowleaf Sida [9, 16]: 80
- Plant response rating, Morningglory [10, 18]: 25
- Plant response rating, Morningglory [10, 22]: 35
- Plant response rating, Morningglory [10, 19]: 0
- Plant response rating, Morningglory [10, 21]: 90
- Plant response rating, Nightshade [11, 18]: 25
- Plant response rating, Nightshade [11, 22]: 98
- Plant response rating, Nightshade [11, 19]: 0
- Plant response rating, Nightshade [11, 21]: 95
- Plant response rating, Barnyardgrass [12, 23]: 40
- Plant response rating, Barnyardgrass [12, 13]: 0
- Plant response rating, Barnyardgrass [12, 24]: 40
- Plant response rating, Barnyardgrass [12, 25]: 40
- Plant response rating, Barnyardgrass [12, 26]: 30
- Plant response rating, Barnyardgrass [12, 15]: 0
- Plant response rating, Barnyardgrass [12, 17]: 35
- Plant response rating, Barnyardgrass [12, 16]: 65
